Laboratory results: patent publication US7534456B2, “Agastache rugosa extract and composition containing tilianin isolated and purified from said extract having anti-inflammatory activity and anti-atherogenic activity” (Korea Research Institute of Bioscience and Biotechnology, priority 2001, dated 2009)
Marks after values point to notes of the source that are not given here.

Tests used:
atherosclerotic lesion = assay: Inhibitory activity against atherosclerotic lesion in LDLR−/− mice on high cholesterol diet; format: in vivo; conditions: 1.0% in high cholesterol diet, 8 weeks
Source text: The process of experiment on inhibitory activity of atherosclerotic lesion described in detail is as follows. Step I) Mouse Breeding and Experiment on Administration of the Extract of […] rugosa to the Mouse […] During the experiment, the mice had free access to water and food. Step II) Measurement of Atherosclerotic Lesion Models After 8 weeks of experiment, the blood was gathered through the eyes of all mice. Then, PBS ([…]) was flowed through the heart and the artery of mice for 10 minutes and subsequently paraformaldehyde was flowed through for 5 minutes. […] Six frozen sections (9 μm each), prepared beginning from the area of artery using microtome maintaining low temperature (-20° C.), were stained with Oil red O and counter-stained with Harris hematoxylin. These stained sections were then quantified by computer-assisted morphometry and the average lesion size was calculated for each animal group. In this manner, inhibitory activity against sample group's lesion according to outbreak of control group's lesion was calculated.

[1] = system: ICAM-1 expression for THP-1 cells; assay: Inhibitory activity against TNF-α-induced ICAM-1 expression in THP-1 cells; format: cell-based, human; conditions: 30 μM, TNF-α 10 ng/ml
Protocol: The following is the process of experiment on inhibitory activity against ICAM-1 expression for THP-1 cells.
THP-1 cells were cultured in CO2 incubator (5% CO2, 95% relative humidity, 37° C.) using RPMI-1640 broth (RPMI-1640, Gibco BRL 23400-021, 1.62%; 0.2% NaHCO3; 1% antimicrobial agents with penicillin and streptomycin mixed) with 10% fetal bovine serum (Gibco BRL 26140-079, FBS) added to the culture media. Samples for test were melted in DMSO, diluted with phosphate buffered saline solution (PBS) to below 5% and added to reactive solution by 5%, so as to set the concentration of DMSO with samples melted therein not to exceed 0.25% in the final solution. 200 μl of THP-1 cells (2.5×10^5 cells/ml) was divided into each well of 96-well with addition of 10 μl of solution prepared at constant concentration. After culturing it in 37° C. CO2 incubator for 1 hour, TNF-α (final concentration: 10 ng/ml) was added to induce ICAM-1 expression and it was cultured in CO2 incubator for 16 more hours. The reactive solution was made to isolate nonspecific bonding part by adding 25 μl of glutaraldehyde buffer solution (glutaraldehyde 2.08% in PBS) to set cells at well, washing it with PBST (0.005% tween-20 in PBS) and adding 3% skim milk. […] Then, the inhibition ratio of the expression by samples was calculated after measuring absorbance at 490 nm and ICAM-1 expression of THP-1 cells by TNF-α.

Row | SMILES | Lesion size (μm^2) (atherosclerotic lesion) | Inhibitory activity (%) against atherosclerotic lesion (atherosclerotic lesion; vs control group) | Inhibitory activity of ICAM-1 expression (%) [1] [%]
1 | CC[C@H](C)C(=O)O[C@H]1C[C@@H](C)C=C2C=C[C@H](C)[C@H](CC[C@@H]3C[C@@H](O)CC(=O)O3)[C@H]21 [Lovastatin, lovastatin, reference compound] | 291442.0 ± 96927.8 | 50.9*** % | 
2 | C[C@@H]1C[C@H]2[C@@H]3CCC4=CC(=O)C=C[C@]4(C)[C@@]3(F)[C@@H](O)C[C@]2(C)[C@@]1(O)C(=O)CO [Dexamethasone, dexamethasone, reference compound] |  |  | 40.1 ± 1.7
